Experimental data: ChEMBL document CHEMBL1142254, “5'-Fluoro-5'-deoxyaristeromycin” (Bioorg Med Chem Lett, 2008)
pEC50: −log10 of the molar value. The source made the active and inactive calls. The rule behind the calls is not given here.

How the values were obtained:
[1] = test system: Feline coronavirus; assay: Antiviral activity against Feline coronavirus; assay type: functional, organism-based
[2] = test system: Human alphaherpesvirus 2; assay: Antiviral activity against HSV2; assay type: functional, organism-based
[3] = test system: Measles morbillivirus; assay: Antiviral activity against measles virus MO6 by neutral red assay; assay type: functional, organism-based
[4] = test system: unidentified adenovirus; assay: Antiviral activity against adenovirus; assay type: functional, organism-based
[5] = test system: Vaccinia virus; assay: Antiviral activity against vaccinia virus; assay type: functional, organism-based; conditions: Orthopoxvirus vaccinia
[6] = Cytotoxicity against cat CRFK cells; assay type: cell-based, Felis catus
[7] = test system: HeLa; assay: Cytotoxicity against human HeLa cells; assay type: cell-based
[8] = test system: HFF; assay: Cytotoxicity against human HFF cells; assay type: cell-based
[9] = test system: Vesicular stomatitis virus; assay: Antiviral activity against in Vesicular stomatitis virus; assay type: functional, organism-based
[10] = test system: Measles morbillivirus; assay: Antiviral activity against measles virus MO6 by visual assay; assay type: functional, organism-based
[11] = test system: Human alphaherpesvirus 1; assay: Antiviral activity against thymidine kinase deficient HSV1; assay type: functional, organism-based
[12] = test system: Hepatitis C virus; assay: Antiviral activity against HCV; assay type: functional, organism-based; conditions: Hepacivirus hominis
[13] = test system: Sindbis virus; assay: Antiviral activity against Sindbis virus; assay type: functional, organism-based
[14] = test system: Punta Toro virus; assay: Antiviral activity against Punta Toro virus; assay type: functional, organism-based
[15] = test system: A549; assay: Cytotoxicity against human A549 cells; assay type: cell-based
[16] = Cytotoxicity against rhesus monkey MA104 cells; assay type: cell-based, Macaca mulatta
[17] = test system: Enterovirus; assay: Antiviral activity against rhinovirus; assay type: functional, organism-based
[18] = test system: Respiratory syncytial virus; assay: Antiviral activity against RSV; assay type: functional, organism-based
[19] = Cytotoxicity against human Huh7ET cells; assay type: cell-based; conditions: huh-7
[20] = test system: Mammalian orthoreovirus 1; assay: Antiviral activity against Reovirus1; assay type: functional, organism-based
[21] = test system: Coxsackievirus B4; assay: Antiviral activity against Coxsackie virus B4; assay type: functional, organism-based
[22] = test system: Human respirovirus 3; assay: Antiviral activity against Parainfluenza 3 virus; assay type: functional, organism-based
[23] = test system: Cowpox virus; assay: Antiviral activity against Cowpox virus; assay type: functional, organism-based
[24] = test system: MDCK; assay: Cytotoxicity against dog MDCK cells; assay type: cell-based, Canis lupus familiaris
[25] = test system: Vero; assay: Cytotoxicity against african green monkey Vero cells; assay type: cell-based; conditions: chlorocebus sabaeus
[26] = Cytotoxicity against african green monkey CV1 cells; assay type: cell-based; conditions: chlorocebus aethiops, cv-1
[27] = test system: HEL; assay: Cytotoxicity against human HEL cells; assay type: cell-based
[28] = test system: Human alphaherpesvirus 1; assay: Antiviral activity against HSV1; assay type: functional, organism-based
[29] = test system: West Nile virus; assay: Antiviral activity against West Nile virus; assay type: functional, organism-based

Nc1ncnc2c1ncn2[C@@H]1C[C@H](CF)[C@@H](O)[C@H]1O
Activity [1]: inactive | Activity [2]: inactive | pEC50 [3]: 5.55 | Activity [4]: inactive | Activity [5]: inactive | Activity [6]: Non-toxic | Activity [7]: Non-toxic | Activity [8]: Non-toxic | Activity [9]: inactive | pEC50 [10]: 4.89 | Activity [11]: inactive | Activity [12]: inactive | Activity [13]: inactive | Activity [14]: inactive | Activity [15]: Non-toxic | Activity [16]: Non-toxic | Activity [17]: inactive | Activity [18]: inactive | Activity [19]: Non-toxic | Activity [20]: inactive | Activity [21]: inactive | Activity [22]: inactive | Activity [23]: inactive | Activity [24]: Non-toxic | Activity [25]: Non-toxic | Activity [26]: Non-toxic | Activity [27]: Non-toxic | Activity [28]: inactive | Activity [29]: inactive
